Reference: a melting point compilation (Tetko et al.; mined from patent text by program, amines drawn as free bases though some values may be those of a salt)

SMILES	melting point [°C]
COC(C)Cn1c(C)nc2c(N)nc3ccccc3c21 (stereo not given)	196 to 197
CCCCOC(=O)C1=C(C)NC(C)=C(C(=O)OC)C1c1cccc([N+](=O)[O-])c1 (stereo not given)	69 to 70
COc1ccc(Br)c(Cl)c1C(=O)O	186 to 188
Cc1ccc(OCCCN2CCN(c3ccc(Cl)nn3)CC2)cc1	129 to 131
CCCCOc1nsnc1S(C)(=O)=O	39 to 40
CCOC(=O)COc1ccc(Br)cc1C1C(C(=O)OCC)=C(C)NC(C)=C1C(=O)OCC	153 to 154
CCOC1CC2(C)C(CCC3C4CCC(C(C)=O)C4(C)CC(NCCC(C)C)C32)CC1O (stereo not given)	110 to 112
CC(COc1ccc(CC2SC(=O)NC2=O)cc1)C1CC(COc2ccccc2)OC1=S (stereo not given)	53 to 58
CC(C)(C)CCCOC1CCC2C3C(=O)C=C4CC(O)CCC4(C)C3CCC12C (stereo not given)	203 to 205
NS(=O)(=O)c1cc(C2OCCO2)cs1	225 to 227
CNc1nc(OC)c(C(=O)O)cc1Br	224 to 225
CCCCc1ccc(-c2ccc(CCc3ccc(Cl)cc3)cc2)cc1	129
COC(=O)CCC(=O)c1ccc(C)cc1O	61 to 63
Cc1cc(=O)oc2nn(Cc3cccs3)c(C)c12	164 to 167
COc1cc(Nc2c(C#N)cnc3cc4cc(OCCCCl)c(OC)cc4cc23)c(Cl)cc1Cl	220 to 223
Cc1ccc(-c2cn3cc(C(F)(F)F)ccc3n2)cc1	187 to 188
CC(=O)Oc1ccc2c(c1)CCC1C3CCC(=O)C3(C)CC(O)C21O (stereo not given)	199 to 201
Nc1ccc2c(=O)n(-c3ccccc3)c(=O)n(-c3ccccc3)c2n1	162 to 163
CCC(C)(C)c1c(OCc2ncnn2C)nn2c(-c3c(F)ccc(F)c3F)nncc12	122 to 125
CCCCn1c(C)c(C)cc(N)c1=O	94 to 97
Cc1ncccc1OCCO	75 to 80
O=C(c1cccc(F)c1)N1CCc2cc(S(=O)(=O)N3CC(c4ccccc4)NC3=O)ccc21 (stereo not given)	202

SMILES	melting point [°C]
Nc1nc(-c2cccnc2)c(Cl)s1	202
Cc1cccc(C(=O)CCl)c1O	65 to 66
CC(C)COC(=O)c1ccc(N)cc1N	54 to 55
S=C1CN=C(c2ccccc2Cl)c2ccccc2N1	228 to 229
Cc1ccc(-c2c(NS(=O)(=O)c3ccc(C(C)(C)C)cc3)ncnc2OCCOc2ccc(N(C)C)cc2)cc1	142 to 145
CCc1c(C(=O)c2cc(C)cc(C=CC#N)c2)[nH]c(=O)[nH]c1=O	305 to 306
O=C(O)CCCCCCc1ncsc1C(=O)O	151 to 153
Cc1ccc(CC(C(N)=O)c2ccccc2)cc1 (stereo not given)	150 to 151
CC(Cc1ccc(OCc2ccccc2)cc1)NC(=O)CC(c1ccccc1)c1ccccc1 (stereo not given)	121 to 125
Cc1ccc(OC(=O)CCCC(=O)OOC(=O)CCCC(=O)Oc2ccc(C)cc2)cc1	24 to 30
CNS(=O)(=O)c1sc(C)cc1CC(=O)O	138
O=C(NCCCC1CCC2=C1CC=CC2)C(F)(F)F (stereo not given)	61 to 62
O=C(NCC(S)CO)OCc1ccc([N+](=O)[O-])cc1 (stereo not given)	65 to 67
Cc1ocnc1-c1cc(C(C)(C)C)c(O)c(C(C)(C)C)c1	105 to 107
COc1cccnc1Oc1cccc(C#N)c1	88 to 89
CCOC(=O)c1csc(/C=C/c2cccc(N)c2)n1	112 to 113
CN(C)C1(Cc2ccccc2)CCC(c2[nH]c3ccccc3c2Cc2ccccc2)CC1 (stereo not given)	140 to 143
C=CCO[C@@H]1C[C@H]2[C@H](C(=O)O)[C@H]2[C@]1(N)C(=O)O	> 250
CCCN1NC(c2ccc(OC)cc2)C2=C1C(=Cc1ccc(OC)cc1)CSC2 (stereo not given)	132 to 134
CC1(C)OC(=S)Nc2ccc(-c3ccc(C#N)[nH]3)cc21	261 to 262
CCCn1c(OCC2CC2(Cl)Cl)nc2sc(Cl)cc2c1=O (stereo not given)	94 to 96
OC1(c2ccc(Cl)cc2)CCNC1 (stereo not given)	79 to 80

SMILES	melting point [°C]
O=C(Oc1ccccc1)c1ccc(-c2ccccc2)cc1	146 to 149
NC(=O)c1cnc2c([N+](=O)[O-])cccc2c1Cl	277 to 279
CN1CC2CC(=O)NC3C=CC=C4Cc5ccccc5C(C1)C2N43 (stereo not given)	165 to 168
Clc1ccc2c(c1)C1(CO1)c1ccccc1C21CO1 (stereo not given)	61 to 67
c1ccc(SCc2cc3ccccc3[nH]2)cc1	100 to 102
COc1ccc(C(NCCNC(c2ccccc2)c2ccc(OC)cc2)c2ccccc2)cc1 (stereo not given)	97 to 98
CCCc1c(OCCCCCCc2cc(O)c(O)cc2F)ccc(C(=O)O)c1O	110 to 111
O=[N+]([O-])c1cccc(-c2nnc(Cl)s2)c1	162 to 165
Cc1oc(-c2ccccc2)nc1COc1ccc(C=NO)cc1	192 to 193
COc1cc([N+](=O)[O-])c([N+](=O)[O-])cc1O	172
COc1cc2c(cc1Cl)C(O[Si](C)(C)C)(c1ccccc1Cl)C(=O)N2 (stereo not given)	211 to 212
CCCc1c(OCCCOc2ccc3c(c2CCC)OC(C)(CCC(=O)OC)CC3)ccc(C(C)=O)c1O (stereo not given)	53 to 55
CCOC(=O)C[C@@H]1C(=O)N(S(=O)(=O)c2ccc(OC)cc2)C=C[C@@H]1c1ccc(OC)cc1	107 to 110
CCCc1cc(NCc2ccc3c(c2)OCO3)nc(SCC#N)n1	92 to 94
COc1ccc2c(c1)CC[C@@H]1[C@@H]2CC[C@@]2(C)[C@H]1CCC2(OC)OC	104 to 116
CCOC(=O)c1c(C(F)(F)F)nc(C(F)F)c(C(=O)OC)c1CS(C)(=O)=O	110 to 112
C=CCc1cc2c(c(CC=C)c1O)CCC(=O)N2CCCNC(N)=O	203 to 204
CC(C)(C)OC(=O)N[C@H]1CN(N=C(c2ccccc2)c2ccccc2)C1=O	167 to 170
COc1ccc(C2NC(=O)C(C)S2)cc1OC (stereo not given)	151 to 152
COC(=O)OCC(COC(=O)OC)OCn1cnc2c(=O)[nH]c(N)nc21	204 to 206
O=C(O)Cn1c(=O)c(=O)[nH]c2cc([N+](=O)[O-])c(Cl)cc21	> 280

Next, values leading:

melting point [°C]	SMILES
208 to 210	O=C(Nc1cccc(-c2cnc(-c3cccc(NC(=O)c4ccccn4)c3)[nH]2)c1)c1ccccn1
128	CCCCCCC(C(=O)O)n1cnc(NC(=O)C2(O)c3ccccc3-c3ccccc32)c1 (stereo not given)
124 to 131	COc1cc(C(C)C)ccc1C1(O)C(=O)c2ccc(N)c(NC(C)=O)c2C1=O (stereo not given)
88 to 90	COC(=O)c1cc(C2(c3ccc(F)c(-c4cncnc4)c3)N=C(N)N(C)C2=O)cn1CCF (stereo not given)
200	O=c1c2cccnc2c(-c2ccccc2)cn1Cc1ccncc1
103 to 106	CCOC(=O)C(C)n1c(-c2ccc(Cl)cc2)nc2cccnc21 (stereo not given)
193 to 195	COc1nc2ccccc2nc1NC(=S)N1CCN(c2cc(C)cc(C)c2)CC1
168 to 171	CCC1=Nc2ccc(OCCN3C(=O)c4ccccc4C3=O)cc2C(=O)C1
171 to 174	CS(=O)(=O)c1ccc(-c2sc(-c3ccccc3Cl)nc2-c2cccs2)cc1
103 to 106	O=C(O)CCCc1cc2nc(Cl)ccc2n1S(=O)(=O)c1ccc2nccnc2c1
145 to 146	CCOC(=O)COc1ccccc1C(=O)Nc1ccccc1Sc1ccccc1-c1nnn[nH]1
207 to 208	COC(=O)c1ccc(Cn2c(C)nc3ccccc32)c2ccccc12
200 to 203	CCc1cc(C(=O)c2ccccc2Cl)c(-n2c(CNC(=O)c3cc4ccccc4n3CC(=O)O)nnc2C(F)(F)F)s1
129 to 130	Cc1ccc(-c2c(C(=O)NCc3cc(C(F)(F)F)cc(C(F)(F)F)c3)n(CCC(C)CO)c(=O)c3ncccc23)cc1 (racemic)
120 to 122	Cc1nn(C)c(OC(=O)CCl)c1C(=O)c1ccc(Cl)cc1Cl
85 to 86	c1ccc(-c2cc3ccc4ccccc4n3n2)cc1
101 to 103	COC(=O)NCc1cc(C(C)=NOCc2ccc(F)cc2)ccc1Cl
177	O=C1Nc2ccc(C(c3ccc(Cl)cc3)n3ccnc3)cc2C(c2cccc(Cl)c2)N1 (stereo not given)

melting point [°C]	SMILES
205 to 207	CNC(=O)Nc1cc(CNc2ncccc2C(=O)Nc2ccc3cn(C)nc3c2)ccn1
132 to 136	Cn1nc(-c2c(F)cccc2F)nc1-c1ccc(OCc2ccc(OC(F)(F)F)cc2)c(Cl)c1
91 to 93	CC(C)(C)[Si](C)(C)OC1CN(c2ccc(NC(=O)OCc3ccccc3)cc2F)C1
85 to 90	O=C(Nc1ncnc2c1ncn2C[C@@H]1O[C@H](CO)[C@@H](O)[C@H]1O)c1ccccc1
158 to 159	O=C(Nc1ccc(-n2nc(C(F)(F)F)cc2C(F)(F)F)cc1)c1cc(F)c(F)c(F)c1
148 to 150	COc1ccc(S(=O)(=O)Nc2cccnc2Nc2ccccc2F)cc1
198 to 200	Cc1ccccc1Nc1nc(N(C)c2ccccc2)c2sccc2n1
86	CN(C)C(=O)Sc1ccccc1C(=O)c1cccc(C#N)c1
110 to 112	O=C(NC(=O)N1CCC(Cc2ccccc2)CC1)c1ccc2[nH]ccc2c1
151	CCOC(=O)Cc1cnc2c(NC(=O)c3c(Cl)cccc3Cl)cccc2c1
182	Cc1ccc(-c2c(Cl)ncn2-c2ccc(S(C)(=O)=O)cc2)cc1
70 to 71	CCC=C1SC(=O)N(CCCCOc2cccn3ccnc23)C1=O
160 to 162	COc1ccc(S(=O)(=O)c2ccc(OC)c3ccccc23)cc1
70 to 71	CCCCC(Cc1ccc(OCCNC(=O)c2ccc(-c3cc(C)c(OCOC)c(C)c3)cc2)cc1)C(=O)OCC (stereo not given)
158 to 161	CON=Cc1ccc(-c2ccccc2NC(=O)c2c(C)nn(C)c2F)cc1F
62 to 65	C#CCOc1ccc2c(c1)c(-c1ccc(C(C)C)cc1)nc(=O)n2Cc1cccc(OC(C)(C)C)n1
264 to 266	CC(C)=C(C(=O)O)c1cc(C(C)C)c(O)c2c(Cc3ccccc3)cccc12
